From patent publication US6905698B1, “Particulate carrier for biocide formulations” (Ineos Silicas Limited, priority 1998, dated 2005)
≈ marks a conversion by molar mass, not a printed value. Where two headings read alike, the source gives them in different places.

How the values were obtained:
[1] = cited from earlier work
[2] = U.V. irradiation: biocide remaining
Procedure: (§1) The loaded biocides, together with the stock solutions, were spread on petri dishes and either placed in an incubator at 60° C. or exposed to U.V. irradiation in a Microscal unit (Miscoscal Limited, London) fitted with a 500 W high pressure mercury/tungsten lamp (wavelength>300 nm) operating at temperature 50° C. and a relative humidity in the region of 50%. […] Samples were withdrawn from the petri dishes undergoing thermal treatment and exposure to U.V. irradiation on a regular basis over a period in the region of 50 days. The amount of biocide remaining in each withdrawn sample was determined at the time of withdrawal using second derivative U.V.-visible Spectroscopy. The amount of biocide remaining in the stock solutions was determined by Gas Chromatography Mass Spectrometry. Relative peak heights corresponding to the residual parts of OIT, CIT and MIT were used to determine the concentrations of biocide in each sample.

[3] = Thermal ageing at 60° C.: biocide remaining; settings: Thermal Ageing 60° C.
Procedure: as §1

Aureobasidium pullulans = test: Minimum Inhibition Concentration (MIC); assay type: cell-based
Procedure: The retention factor, R, referred to above is determined from the equation R=A/P, where A represents the percentage active ingredient by weight remaining in the pore system after contacting with water according to the conditions defined herein and P represents the potency (Minimum Inhibition Concentration in mg of active ingredient per liter) of the biocide determined with respect to the reference microorganism Aureobasidium pullulans using the procedure defined herein.
The usefulness of the inorganic carrier particle will depend on the particular biocide being used, its effectiveness at various activity levels and the quantity of biocide (active ingredient) adsorbed and retained in the pore system. […]
The minimum inhibition concentration (MIC) is a measure of the potency of a biocide and comprises the minimum concentration (ppm) of a biocide active or formulation (normally quoted in terms of the active ingredient) determined experimentally in vitro to prevent the growth of a pure culture of a reference microorganism. […]
A standardised culture of the microbe under lest is prepared. […] The concentration at which no growth is detected is the minimum inhibition concentration (MIC) for that particlar biocide and reference organism. […]

[4] = test system: Cladosporium cladosporioides; test: Water leaching of paint discs: zone of inhibition before and after 24 hours leach; assay type: cell-based; settings: acrylic high build paint; for Zone of Inhibition After Leaching: 24 hours water leach
Procedure: The method allows an assessment of the level of protection afforded by incorporating a biocide into a paint formulation. Filter discs (Whatman International Limited, Maidstone, Kent), Type 54, hardened 42.5 mm diameter were brush painted on one side of the disc with the test paints (24 hours between coats, 3 replicates per paint) to give an average loading of 0.05 g dried paint. The painted discs were cured at 60° C. for 2 days. One set of discs is then washed with a large volume of distilled water (20 liters) under controlled flow for 24 hours at ambient temperatures.
A freeze dried ampoule of Cladosporium cladosporioides (strain no. FS33 ex. Paint Research Association, Teddington, UK) was revived on potato dextrose agar (Oxoid Limited, Basingstoke, UK). A spore innoculum was prepared from the resultant sporing culture (5-7 days growth at 25° C.) by adding 5 ml of sterile distilled water to the surface of the culture on the agar and gently rubbing the surface with a sterile loop to dislodge the spores' mycelium. The resultant suspension was filtered through sterile wool and the filtrate used to seed molten (45° C.) potato dextrose agar prior to pouring into sterile Petri dishes.
Each painted disc was placed on the surface of the seeded agar plate, and the plates placed in a fridge (6-8° C.) for 24 hours to allow diffusion of the biocide. After this period, they were transferred to an incubator at 25° C. for five days. The diameter of the disc, plus any zone of inhibition (no fungal growth) around the discs was measured. An average of the three replicates is taken as a data point.
The biocidal efficiency of the two carriers (SD 2209 and SD 1866) loaded, at 30% by weight, with OIT and DCOIT in the acrylic high build formulation was compared before, and after, a 24 hours leach using procedure (ix) described hereinbefore. The paints containing the biocide carrying particles and those where the biocide was incorporated as the free biocide where used in the example.

[5] = test system: Cladosporium cladosporioides; test: Surface growth on painted discs after a further 14 days incubation; assay type: cell-based; settings: biocide 300 ppm; for Zone of Inhibition After Leaching (surface of paint discs examined for growth): after water leaching
Procedure: To further distinguish performance the inoculated petri dishes containing the painted discs were incubated for a further 14 days so as to examine the extent of encroachment of the fungi into the surface of the paint film. The dishes were removed from the incubator and the surface of the paint discs examined for growth.

[6] = test system: standard mixed inoculum of BS 3900: Part G6: 1989 with Alternaria altarnata; test: Prolonged protection on paint panels (BS 3900: Part G6: 1989); assay type: cell-based; settings: weathered panels; for Fungal growth rating % Cover D28: Day 28; for Fungal growth rating % Cover D84: Day 84
Procedure: Candidate carrier materials dispersed in water borne acrylic emulsion paint were subjected to the procedure of BS 3900: Part G6: 1989 to assess their long term fungicidal efficiency when compared with the biocide added directly to the paint.
Masterboard panels (150 mm×150 mm) were brush coated on one side with the test paints (2 coats, 24 hours between coats) and cured at 60° C. for two days. The coated panels were then weathered in a QUV apparatus (The Q-Panel Co. Bolton, UK) under the following conditions: 125±5 hours exposure to UVA (340 nm) at 40° C. with 1 hour water spray at approximately 24 hour intervals (5 in total). During the water spray the temperature cools to about 20° C.
After weathering the panels were cut into two equal samples and subjected to the procedure described in BS 3900: Part G6:1989. The control paint was the test paint without biocide. Alternaria altarnata was included in the standard mixed inoculum of BS 3900: Part G6: 1989.
Visual examination of the panels was carried out after 28, 36 and 84 days. In accordance with the standard procedure, the percentage cover of each panel by fungal growth was assessed.
Following on from the observations of Example 4, the two carriers SD 2209 and SD 1866 loaded, at 30% by weight, with OIT and DCOIT were incorporated into the paint formulation specified in Example 4 and subjected to BS 3900: Part G6 as described in procedure (x) hereinbefore to assess their long term film fungicidal efficiency in comparison with OIT and DCOIT added directly to the paint.
Masterboard panels (150 mm×150 mm) were brush coated on one side with the test paints (2 coats, 24 hours between coats) and cured at 60° C. for two days. The coated panels were then weathered in a QUV apparatus as described hereinbefore in procedure (x). After weathering the panels were cut into two equal samples and subjected to the procedure described in BS 3900: Part G6: 1989. The panels were exposed for 28, 36, and 84 days, in accordance with the standard procedure, and the percentage cover of each panel by fungal growth was assessed at these stages.

[7] = 50.98 %
Procedure: as §1

[8] = 50.98 %; remark: listed apart in the source
Procedure: as §1

[9] = test system: standard mixed inoculum of BS 3900: Part G6: 1989 with Alternaria altarnata; test: Prolonged protection on paint panels (BS 3900: Part G6: 1989); assay type: cell-based; settings: weathered panels

Row | SMILES | water solubility relative to OIT, in words [1] | amount of original biocide remaining (MIT, CIT, MIT/CIT) ([2]; 0 days) | amount of original biocide remaining (MIT, CIT, MIT/CIT) ([2]; 7 days) | amount of original biocide remaining (MIT, CIT, MIT/CIT) ([2]; 25 days) | amount of original biocide remaining (MIT, CIT, MIT/CIT) ([2]; 32 days) | amount of original biocide remaining (MIT, CIT, MIT/CIT) ([2]; 39 days) | amount of original biocide remaining (MIT, CIT, MIT/CIT) ([3]; 0 days) | amount of original biocide remaining (MIT, CIT, MIT/CIT) ([3]; 7 days) | amount of original biocide remaining (MIT, CIT, MIT/CIT) ([3]; 12 days) | amount of original biocide remaining (MIT, CIT, MIT/CIT) ([3]; 18 days) | Zone of Inhibition Before Leaching ([4]; biocide 300 ppm) [mm] | Zone of Inhibition After Leaching ([4]; biocide 300 ppm) | Zone of Inhibition Before Leaching ([4]; biocide 1,200 ppm) [mm] | Zone of Inhibition After Leaching ([4]; biocide 1,200 ppm) [mm] | Zone of Inhibition Before Leaching ([4]; biocide 4,000 ppm) [mm] | Zone of Inhibition After Leaching ([4]; biocide 4,000 ppm) [mm] | Zone of Inhibition Before Leaching (surface of paint discs examined for growth) [5] | Zone of Inhibition After Leaching (surface of paint discs examined for growth) [5] | Fungal growth rating % Cover D28 ([6]; biocide 300 ppm) [% cover] | Fungal growth rating % Cover D84 ([6]; biocide 300 ppm) [% cover] | further results
1 | Cn1sccc1=O [MIT, 2-Methyl-4-isothiazolin-3-one] | more water soluble than OIT | 100 | 78 | 69 | 62 | 50 | 100 | 95 | 90 | 80 |  |  |  |  |  |  |  |  |  |  | amount of original biocide remaining (MIT, CIT, MIT/CIT) ([2]; 55 days): 24; amount of original biocide remaining (MIT, CIT, MIT/CIT) ([3]; 40 days): 50
2 | CCCCCCCCn1sccc1=O [OIT, 2-Octyl-4-Isothiazolin-3-one] |  |  |  |  |  |  |  |  |  |  | 32 | OVERGROWTH | >42 | 1 | >42 | 1 | None | Growth | 35 | 85 | MIC (Aureobasidium pullulans; Aureobasidium pullulans, reference microorganism Aureobasidium pollulens): 36 mg/L (≈ 169 µM); Minimum Inhibition Concentration (MIC) (Aureobasidium pullulans; reference microorganism Aureobasidium pullulans): 36 mg of active ingredient per liter; Fungal growth rating % Cover D28 ([6]; biocide 1,200 ppm): 3 % cover; Fungal growth rating % Cover D84 ([6]; biocide 1,200 ppm): 35 % cover; Fungal growth rating % Cover D28 ([6]; biocide 1,400 ppm): 0 % cover; Fungal growth rating % Cover D84 ([6]; biocide 1,400 ppm): 5 % cover; amount of original biocide remaining (OIT) ([7]; 0 h): 100; amount of original biocide remaining (OIT) ([7]; 288 h): 78; amount of original biocide remaining (OIT) ([7]; 432 h): 65; amount of original biocide remaining (OIT) ([7]; 960 h): 50; amount of original biocide remaining (OIT) ([8]; 0 h): 100; amount of original biocide remaining (OIT) ([8]; 336 h): 17; amount of original biocide remaining (OIT) ([8]; 1008 h): 1; Fungal growth rating % Cover D56 ([9]; biocide 300 ppm): 85 % cover; Fungal growth rating % Cover D56 ([9]; biocide 1,200 ppm): 35 % cover; Fungal growth rating % Cover D56 ([9]; biocide 1,400 ppm): 0 % cover
3 | Cn1sc(Cl)cc1=O [CIT, 5-Chloro-2-Methyl-4-isothiazolin-3-one] | more water soluble than OIT | 100 | 0 | 0 | 0 | 0 | 100 | 80 | 40 | 30 |  |  |  |  |  |  |  |  |  |  | amount of original biocide remaining (MIT, CIT, MIT/CIT) ([3]; 26 days): 0
4 | CCCCCCCCn1sc(Cl)c(Cl)c1=O [DCOIT, 4,5-Dichloro-2-Octyl-4-Isothiazolin-3-one] |  |  |  |  |  |  |  |  |  |  | 22 | OVERGROWTH | 25 | 1 | 38 | 2 | None | Growth | 23 | 85 | Fungal growth rating % Cover D28 ([6]; biocide 1,200 ppm): 8 % cover; Fungal growth rating % Cover D84 ([6]; biocide 1,200 ppm): 68 % cover; Fungal growth rating % Cover D28 ([6]; biocide 4,000 ppm): 0 % cover; Fungal growth rating % Cover D84 ([6]; biocide 4,000 ppm): 5 % cover; Fungal growth rating % Cover D56 ([9]; biocide 300 ppm): 85 % cover; Fungal growth rating % Cover D56 ([9]; biocide 1,200 ppm): 55 % cover; Fungal growth rating % Cover D56 ([9]; biocide 4,000 ppm): 0 % cover
